Measured values as given in US20240082238A1, “COMPOSITIONS AND METHODS FOR TREATING CANCER” (UNIVERSITY OF IOWA RESEARCH FOUNDATION, priority 2021, published 2024).

Tested on: caspase 3
Assay: Caspase multiplex activity assay, caspase 3
Type: cell-based, human
Details: 72 h; PTX 5, 10 nM; CIP2b 10, 25, 50 μM
Procedure: Apoptosis and caspase activity. The expression of caspase 3, 8, and 9 was measured using Multiplex Activity Assay Fluorometric Kit (Cat. No. ab219915, Abcam). Briefly, Hec50co cells were plated in 96-well plates at a density of 3000 per well in 100 μL of the complete medium and incubated for 24 hours. After incubation, the medium was removed, and different concentrations either in single or combination of treatments were added (PTX 5 and 10 nM; CIP2b 10, 25, and 50 μM). Cells with treatments were incubated for 24 or 72 hours. Then, the caspase kit reagents were added to the cells and incubated at room temperature for 60 minutes. Fluorescence intensity (at excitation/emission values of 535/620 nm, 490/525 nm, and 370/450 nm for caspase 3, 8, and 9, respectively) was then measured using a SpectraMax M5 microplate reader (Molecular Devices).

levels of caspase 3: high levels of caspase 3
SMILES: CC(=O)O[C@H]1C(=O)[C@@]2(C)[C@H]([C@H](OC(=O)c3ccccc3)[C@]3(O)C[C@H](OC(=O)[C@H](O)[C@@H](NC(=O)c4ccccc4)c4ccccc4)C(C)=C1C3(C)C)[C@]1(OC(C)=O)CO[C@@H]1C[C@@H]2O [PTX, paclitaxel]
